Data published in patent US11708562B2, “Differentiation of human embryonic stem cells” (Janssen Biotech, Inc., priority 2006, dated 2023).

System: H9P33, H9P44 and H9P48 cells
Test: Microarray analysis of definitive endoderm on MEFs vs MATRIGEL +/- Wnt-3A (Table VI)
Conditions: DE treatment in low serum, on MATRIGEL
Procedure: Controls for each group included cells plated on […]-coated dishes and cultured in MEF-conditioned medium or cells plated on MEFs and cultured in ES medium. All groups contained three biological replicates and each biological replicate was repeated on two separate gene chips.
Sample preparation, hybridization, and image analysis were performed according to the Affymetrix Human Genome U133 Plus 2.0 Array. Following normalization and a log transformation, data analysis was performed using OmniViz® software (MA) and […] (VizXLabs, WA). Significant differences in gene expression between the samples were evaluated using analysis of variance and an F-test with adjusted P-value (Benjamini and Hochberg correction) of ≤0.05. Only genes with a present call in at least one group were included in the analysis.

Activin A: a member of the TGFβ superfamily; growth factor (R&D Systems) used to differentiate human embryonic stem cells
mean normalized intensity (log format), 6-phosphofructo-2-kinasefructose-2,6-biphosphatase 4: −0.2429 | mean normalized intensity (log format), Cluster Incl. AB028021: Homo sapiens HNF-3beta mRNA for hepatocyte nuclear factor-3 beta: −1.5339 | mean normalized intensity (log format), ESTs: −3.574 | mean normalized intensity (log format), ESTs, Highly similar to IHH_HUMAN INDIAN HEDGEHOG PROTEIN PRECURSOR (H. sapiens): −0.654 | mean normalized intensity (log format), ESTs, Moderately similar to JE0284 Mm-1 cell derived transplantability-associated protein 1b (H. sapiens): −2.377 | mean normalized intensity (log format), ESTs, Weakly similar to FCE2 MOUSE LOW AFFINITY IMMUNOGLOBULIN EPSILON FC RECEPTOR (M. musculus): 0.4942 | mean normalized intensity (log format), ESTs, Weakly similar to the 331st table hypothetical protein KIAA0555 (H. sapiens): −1.574 | mean normalized intensity (log format), G protein-coupled receptor: 1.507 | mean normalized intensity (log format), G protein-coupled receptor 49: 0.2655 | mean normalized intensity (log format), Homo sapiens HNF-3beta mRNA for hepatocyte nuclear factor-3 beta: −2.718 | mean normalized intensity (log format), Homo sapiens KIAA0878 protein (KIAA0878), mRNA: 2.0265 | mean normalized intensity (log format), Homo sapiens Kell blood group (KEL), mRNA: −2.205 | mean normalized intensity (log format), Homo sapiens MLL septin-like fusion (MSF), mRNA: −3.292 | mean normalized intensity (log format), Homo sapiens Mix-like homeobox protein 1 (MILD1) mRNA: −1.546 | mean normalized intensity (log format), Homo sapiens Rho GTPase activating protein 6 (ARHGAP6), transcript variant 2, mRNA: −1.104 | mean normalized intensity (log format), Homo sapiens TBX3-iso protein (TBX3-iso), mRNA: −2.346 | mean normalized intensity (log format), Homo sapiens angiopoietin 2 (ANGPT2), mRNA: −2.93 | mean normalized intensity (log format), Homo sapiens ankyrin-like with transmembrane domains 1 (ANKTM1), mRNA: −1.109 | mean normalized intensity (log format), Homo sapiens apolipoprotein A-I (APOA1), mRNA: −1.471 | mean normalized intensity (log format), Homo sapiens apolipoprotein A-II (APOA2), mRNA: −1.033 | mean normalized intensity (log format), Homo sapiens arylsulfatase E (chondrodysplasia punctata 1) (ARSE), mRNA: 0.283 | mean normalized intensity (log format), Homo sapiens atrophin-1 interacting protein 1; activin receptor interacting protein 1 (KIAA0705), mRNA: −4.308 | mean normalized intensity (log format), Homo sapiens beta-site APP cleaving enzyme (BACE) mRNA: −2.0354 | mean normalized intensity (log format), Homo sapiens cDNA FLJ11550 fis, clone HEMBA1002970: −1.222 | mean normalized intensity (log format), Homo sapiens cDNA FLJ12993 fis, clone NT2RP3000197: 0.1473 | mean normalized intensity (log format), Homo sapiens cDNA FLJ13221 fis, clone NT2RP4002075: 0.3557 | mean normalized intensity (log format), Homo sapiens cardiac ventricular troponin C mRNA: −0.5497 | mean normalized intensity (log format), Homo sapiens cartilage linking protein 1 (CRTL1), mRNA: −1.315 | mean normalized intensity (log format), Homo sapiens cell adhesion molecule with homology to L1CAM (close homologue of L1) (CHL1), mRNA: −0.5412 | mean normalized intensity (log format), Homo sapiens chromosome 19, cosmid R31181: −0.2589 | mean normalized intensity (log format), Homo sapiens clone 23736 mRNA sequence: −0.04718 | mean normalized intensity (log format), Homo sapiens cryptic mRNA, complete cds: 0.1049 | mean normalized intensity (log format), Homo sapiens cystatin S (CST4), mRNA: 0.9245 | mean normalized intensity (log format), Homo sapiens cystatin SA (CST2), mRNA: −0.1022 | mean normalized intensity (log format), Homo sapiens cystatin SN (CST1), mRNA: 0.07293 | mean normalized intensity (log format), Homo sapiens cytidine deaminase (CDA), mRNA: −3.891 | mean normalized intensity (log format), Homo sapiens dual specificity phosphatase 4 (DUSP4), mRNA: 0.9539 | mean normalized intensity (log format), Homo sapiens fibroblast growth factor 8 (androgen-induced) (FGF8), mRNA: −4.328 | mean normalized intensity (log format), Homo sapiens fibroblast growth factor 17 (FGF17), mRNA: −0.8946 | mean normalized intensity (log format), Homo sapiens frizzled-related protein (FRZB), mRNA: 0.565 | mean normalized intensity (log format), Homo sapiens gastrin-releasing peptide (GRP), mRNA: −2.741 | mean normalized intensity (log format), Homo sapiens glycophorin B (includes Ss blood group) (GYPB), mRNA: −0.9473 | mean normalized intensity (log format), Homo sapiens glycophorin E (GYPE), mRNA: −2.016 | mean normalized intensity (log format), Homo sapiens glycophorin Erik STA (GPErik) gene: −1.194 | mean normalized intensity (log format), Homo sapiens growth differentiation factor 3 (GDF3), mRNA: 1.673 | mean normalized intensity (log format), Homo sapiens haptoglobin (HP), mRNA: −1.101 | mean normalized intensity (log format), Homo sapiens haptoglobin-related protein (HPR), mRNA: −2.6068 | mean normalized intensity (log format), Homo sapiens homeobox protein goosecoid mRNA, complete cds: −4.42 | mean normalized intensity (log format), Homo sapiens hypothetical protein FLJ10718 (FLJ10718), mRNA: 2.605 | mean normalized intensity (log format), Homo sapiens hypothetical protein FLJ10970 (FLJ10970), mRNA: −0.432 | mean normalized intensity (log format), Homo sapiens hypothetical protein FLJ11316 (FLJ11316), mRNA: −0.9047 | mean normalized intensity (log format), Homo sapiens hypothetical protein FLJ22252 similar to SRY-box containing gene 17 (FLJ22252), mRNA: 1.368 | mean normalized intensity (log format), Homo sapiens hypothetical protein FLJ23403 (FLJ23403), mRNA: −1.485 | mean normalized intensity (log format), Homo sapiens lumican (LUM), mRNA: −4.057 | mean normalized intensity (log format), Homo sapiens mRNA for GATA-6, complete cds: 2.219 | mean normalized intensity (log format), Homo sapiens mRNA for KIAA1409 protein, partial cds: 0.3683 | mean normalized intensity (log format), Homo sapiens mRNA; cDNA DKFZp434D0818 (from clone DKFZp434D0818): −2.634 | mean normalized intensity (log format), Homo sapiens mRNA; cDNA DKFZp586J0624 (from clone DKFZp586J0624): −0.8352 | mean normalized intensity (log format), Homo sapiens matrix metalloproteinase 14 (membrane-inserted) (MMP14), mRNA: −0.7235 | mean normalized intensity (log format), Homo sapiens phorbolin-like protein MDS019 (MDS019), mRNA: −1.119 | mean normalized intensity (log format), Homo sapiens presenilin stabilization factor b (PSF) mRNA: −0.8617 | mean normalized intensity (log format), Homo sapiens reserved (KCNK12), mRNA: −0.4687 | mean normalized intensity (log format), Homo sapiens retinoid X receptor, gamma (RXRG), mRNA: −2.375 | mean normalized intensity (log format), Homo sapiens sema domain, immunoglobulin domain (Ig), short basic domain, secreted, (semaphorin) 3E (SEMA3E), mRNA: −0.786 | mean normalized intensity (log format), Homo sapiens sema domain, seven thrombospondin repeats, (semaphorin) 5A (SEMA5A), mRNA: −1.533 | mean normalized intensity (log format), Homo sapiens solute carrier family 16 (monocarboxylic acid transporters), member 3 (SLC16A3), mRNA: 0.7103 | mean normalized intensity (log format), Homo sapiens solute carrier family 21 (prostaglandin transporter), member 2 (SLC21A2), mRNA: 0.7114 | mean normalized intensity (log format), Homo sapiens type VI collagen alpha 2 chain precursor (COL6A2) mRNA: 1.7011 | mean normalized intensity (log format), Homo sapiens, alpha-1 (VI) collagen: −3.662 | mean normalized intensity (log format), Homo sapiens, clone MGC: 4655, mRNA: 2.3772 | mean normalized intensity (log format), Human (clone 8B1) Br-cadherin mRNA: −2.179
